Measurements: PubChem BioAssay (NCI)
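Five compound concentrations were applied to cells in 96-well plates for 48 hours; endpoints were derived by simple linear interpolation of the resulting dose-response curve. GI50 marks 50% less growth. TGI denotes the concentration required for complete inhibition of growth.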

Assays:
Assay in all cases: NCI anticancer screen, dose series, 48 h
SNB-75 CNS = system: SNB-75 CNS
NCI-H460 lung = system: NCI-H460 lung
MCF7 breast = system: MCF7 breast
TK-10 renal = system: TK-10 renal
HCT-116 colon = system: HCT-116 colon
SF-539 CNS = system: SF-539 CNS
HL-60(TB) leukemia = system: HL-60(TB) leukemia
NCI-H23 lung = system: NCI-H23 lung
NCI/ADR-RES ovarian = system: NCI/ADR-RES ovarian
SK-MEL-28 melanoma = system: SK-MEL-28 melanoma
SK-MEL-5 melanoma = system: SK-MEL-5 melanoma
LOX IMVI melanoma = system: LOX IMVI melanoma
RXF 393 renal = system: RXF 393 renal
SK-MEL-2 melanoma = system: SK-MEL-2 melanoma
SF-295 CNS = system: SF-295 CNS
U251 CNS = system: U251 CNS
OVCAR-8 ovarian = system: OVCAR-8 ovarian
HS 578T breast = system: HS 578T breast
OVCAR-4 ovarian = system: OVCAR-4 ovarian
NCI-H226 lung = system: NCI-H226 lung
SF-268 CNS = system: SF-268 CNS
SW-620 colon = system: SW-620 colon
UACC-257 melanoma = system: UACC-257 melanoma
CAKI-1 renal = system: CAKI-1 renal
EKVX NSCLC = system: EKVX NSCLC
UACC-62 melanoma = system: UACC-62 melanoma
HCT-15 colon = system: HCT-15 colon
MALME-3M melanoma = system: MALME-3M melanoma
OVCAR-3 ovarian = system: OVCAR-3 ovarian
RPMI-8226 leukemia = system: RPMI-8226 leukemia
K-562 leukemia = system: K-562 leukemia
SK-OV-3 ovarian = system: SK-OV-3 ovarian
BT-549 breast = system: BT-549 breast
SN12C renal = system: SN12C renal
786-0 renal = system: 786-0 renal
PC-3 prostate = system: PC-3 prostate
OVCAR-5 ovarian = system: OVCAR-5 ovarian
KM12 colon = system: KM12 colon
A549 NSCLC = system: A549 NSCLC
COLO 205 colon = system: COLO 205 colon
MDA-MB-468 breast = system: MDA-MB-468 breast
HOP-92 NSCLC = system: HOP-92 NSCLC
DU-145 prostate = system: DU-145 prostate
MDA-MB-435 = system: MDA-MB-435
A498 renal = system: A498 renal
SNB-19 CNS = system: SNB-19 CNS
MDA-MB-231 breast = system: MDA-MB-231 breast
SR leukemia = system: SR leukemia
CCRF-CEM leukemia = system: CCRF-CEM leukemia
IGROV1 ovarian = system: IGROV1 ovarian
T-47D breast = system: T-47D breast
HCC-2998 colon = system: HCC-2998 colon
UO-31 renal = system: UO-31 renal
MOLT-4 leukemia = system: MOLT-4 leukemia
M14 melanoma = system: M14 melanoma
NCI-H522 lung = system: NCI-H522 lung
ACHN renal = system: ACHN renal
HOP-62 NSCLC = system: HOP-62 NSCLC
HT29 colon = system: HT29 colon

C/C(=N\N=C\c1ccc(Cl)c([N+](=O)[O-])c1)c1ccc2c(c1)Nc1ccccc1S2
GI50 (SNB-75 CNS): 15.7 µM | TGI (SNB-75 CNS): 93.5 µM | GI50 (NCI-H460 lung): 3.38 µM | TGI (NCI-H460 lung): 20 µM | GI50 (MCF7 breast): 3.19 µM | TGI (MCF7 breast): 30 µM | GI50 (TK-10 renal): 18 µM | TGI (TK-10 renal): 94.4 µM | GI50 (HCT-116 colon): 4.44 µM | TGI (HCT-116 colon): > 100 µM | GI50 (SF-539 CNS): 18.5 µM | TGI (SF-539 CNS): 74.5 µM | GI50 (HL-60(TB) leukemia): 16.9 µM | TGI (HL-60(TB) leukemia): > 100 µM | GI50 (NCI-H23 lung): 6.83 µM | TGI (NCI-H23 lung): 39.3 µM | GI50 (NCI/ADR-RES ovarian): 5.22 µM | TGI (NCI/ADR-RES ovarian): 53.1 µM | GI50 (SK-MEL-28 melanoma): 17.8 µM | TGI (SK-MEL-28 melanoma): > 100 µM | GI50 (SK-MEL-5 melanoma): 7.91 µM | TGI (SK-MEL-5 melanoma): > 100 µM | GI50 (LOX IMVI melanoma): 24.8 µM | TGI (LOX IMVI melanoma): > 100 µM | GI50 (RXF 393 renal): 15.3 µM | TGI (RXF 393 renal): 59 µM | GI50 (SK-MEL-2 melanoma): 43.2 µM | TGI (SK-MEL-2 melanoma): > 100 µM | GI50 (SF-295 CNS): 7.73 µM | TGI (SF-295 CNS): 65.3 µM | GI50 (U251 CNS): 7.43 µM | TGI (U251 CNS): 52.4 µM | GI50 (OVCAR-8 ovarian): 6.09 µM | TGI (OVCAR-8 ovarian): > 100 µM | GI50 (HS 578T breast): 7.56 µM | TGI (HS 578T breast): 62.3 µM | GI50 (OVCAR-4 ovarian): 4.03 µM | TGI (OVCAR-4 ovarian): > 100 µM | GI50 (NCI-H226 lung): 8.48 µM | TGI (NCI-H226 lung): 41.9 µM | GI50 (SF-268 CNS): 23.8 µM | TGI (SF-268 CNS): > 100 µM | GI50 (SW-620 colon): 3.56 µM | TGI (SW-620 colon): > 100 µM | GI50 (UACC-257 melanoma): 9.51 µM | TGI (UACC-257 melanoma): > 100 µM | GI50 (CAKI-1 renal): 13.7 µM | TGI (CAKI-1 renal): > 100 µM | GI50 (EKVX NSCLC): 5.85 µM | TGI (EKVX NSCLC): > 100 µM | GI50 (UACC-62 melanoma): 15.1 µM | TGI (UACC-62 melanoma): > 100 µM | GI50 (HCT-15 colon): 9.1 µM | TGI (HCT-15 colon): > 100 µM | GI50 (MALME-3M melanoma): 10.9 µM | TGI (MALME-3M melanoma): 41.1 µM | GI50 (OVCAR-3 ovarian): 4.46 µM | TGI (OVCAR-3 ovarian): 22.5 µM | GI50 (RPMI-8226 leukemia): 4.27 µM | TGI (RPMI-8226 leukemia): > 100 µM | GI50 (K-562 leukemia): 5.37 µM | TGI (K-562 leukemia): > 100 µM | GI50 (SK-OV-3 ovarian): 37 µM | TGI (SK-OV-3 ovarian): > 100 µM | GI50 (BT-549 breast): 17.1 µM | TGI (BT-549 breast): 91.8 µM | GI50 (SN12C renal): 44.3 µM | TGI (SN12C renal): > 100 µM | GI50 (786-0 renal): 26.5 µM | TGI (786-0 renal): > 100 µM | GI50 (PC-3 prostate): 3 µM | TGI (PC-3 prostate): 23.3 µM | GI50 (OVCAR-5 ovarian): > 100 µM | TGI (OVCAR-5 ovarian): > 100 µM | GI50 (KM12 colon): 9.7 µM | TGI (KM12 colon): > 100 µM | GI50 (A549 NSCLC): 12.2 µM | TGI (A549 NSCLC): > 100 µM | GI50 (COLO 205 colon): 36.1 µM | TGI (COLO 205 colon): > 100 µM | GI50 (MDA-MB-468 breast): 1580 nM | TGI (MDA-MB-468 breast): 5.66 µM | GI50 (HOP-92 NSCLC): 12.2 µM | TGI (HOP-92 NSCLC): 61 µM | GI50 (DU-145 prostate): 3.76 µM | TGI (DU-145 prostate): > 100 µM | GI50 (MDA-MB-435): 14.4 µM | TGI (MDA-MB-435): > 100 µM | GI50 (A498 renal): 31 µM | TGI (A498 renal): > 100 µM | GI50 (SNB-19 CNS): 15.8 µM | TGI (SNB-19 CNS): 53.6 µM | GI50 (MDA-MB-231 breast): 14.3 µM | TGI (MDA-MB-231 breast): > 100 µM | GI50 (SR leukemia): 3.49 µM | TGI (SR leukemia): > 100 µM | GI50 (CCRF-CEM leukemia): 4.12 µM | TGI (CCRF-CEM leukemia): > 100 µM | GI50 (IGROV1 ovarian): 17.7 µM | TGI (IGROV1 ovarian): > 100 µM | GI50 (T-47D breast): 6.56 µM | TGI (T-47D breast): > 100 µM | GI50 (HCC-2998 colon): 5.08 µM | TGI (HCC-2998 colon): 19.4 µM | GI50 (UO-31 renal): 78.2 µM | TGI (UO-31 renal): > 100 µM | GI50 (MOLT-4 leukemia): 9.98 µM | TGI (MOLT-4 leukemia): > 100 µM | GI50 (M14 melanoma): 72.4 µM | TGI (M14 melanoma): > 100 µM | GI50 (NCI-H522 lung): 11.6 µM | TGI (NCI-H522 lung): > 100 µM | GI50 (ACHN renal): 14.4 µM | TGI (ACHN renal): > 100 µM | GI50 (HOP-62 NSCLC): 8.03 µM | TGI (HOP-62 NSCLC): 41.3 µM | GI50 (HT29 colon): 4.26 µM | TGI (HT29 colon): > 100 µM
